Experiments:
[1] = tested on: Hepatitis B virus; assay: Antiviral activity against Human hepatitis B virus in Huh-7 cells assessed as reduction in intracellular viral DNA level incubated for 36 hrs by qPCR analysis; type: functional, organism-based; details: Huh-7, 36 h
[2] = tested on: Hepatitis B virus; assay: Inhibition of HBV recombinant Cp149 expressed in Escherichia coli BL21 (DE3) assessed as inhibition of capsid assembly at 10 uM incubated for 1 hr by immune blotting analysis relative to control
[3] = molecular target: CYP2C19 (Homo sapiens, UniProt P33261); assay: Inhibition of human recombinant CYP2C19 using amitriptyline […] at 10 uM by fluorometric assay; type: ADME
[4] = molecular target: hERG (KCNH2) (Homo sapiens, UniProt Q12809); assay: Inhibition of human ERG at 40 uM incubated for 2 to 3 hrs by ligand binding assay
[5] = Metabolic stability in mouse liver microsomes assessed as compound remaining at […] incubated for 30 mins by LC/MS/MS analysis; type: ADME, Microsome; details: read-out: Stabilty
[6] = molecular target: CYP3A4 (Homo sapiens, UniProt P08684); assay: Inhibition of human recombinant CYP3A4 using ketoconazole […] at 10 uM by fluorometric assay; type: ADME
[7] = Metabolic stability in rat liver microsomes assessed as compound remaining at […] incubated for 30 mins by LC/MS/MS analysis; type: ADME, Microsome; details: read-out: Stabilty
[8] = tested on: Hepatitis B virus; assay: Inhibition of HBV recombinant Cp149 expressed in Escherichia coli BL21 (DE3) assessed as inhibition of capsid assembly at 1 uM incubated for 1 hr by immune blotting analysis relative to control
[9] = molecular target: CYP2D6 (Homo sapiens, UniProt P10635); assay: Inhibition of human recombinant CYP2D6 using quinidine […] at 10 uM by fluorometric assay; type: ADME
[10] = tested on: Hepatitis B virus; assay: Inhibition of HBV recombinant Cp149 expressed in Escherichia coli BL21 (DE3) assessed as inhibition of capsid assembly at 0.1 uM incubated for 1 hr by immune blotting analysis relative to control
[11] = molecular target: T1, CYP1A2 (Homo sapiens, UniProt P05177); assay: Inhibition of human recombinant CYP1A2 using alpha-naphthoflavone […] at 10 uM by fluorometric assay; type: ADME
T1 sequence (P05177 whole entry): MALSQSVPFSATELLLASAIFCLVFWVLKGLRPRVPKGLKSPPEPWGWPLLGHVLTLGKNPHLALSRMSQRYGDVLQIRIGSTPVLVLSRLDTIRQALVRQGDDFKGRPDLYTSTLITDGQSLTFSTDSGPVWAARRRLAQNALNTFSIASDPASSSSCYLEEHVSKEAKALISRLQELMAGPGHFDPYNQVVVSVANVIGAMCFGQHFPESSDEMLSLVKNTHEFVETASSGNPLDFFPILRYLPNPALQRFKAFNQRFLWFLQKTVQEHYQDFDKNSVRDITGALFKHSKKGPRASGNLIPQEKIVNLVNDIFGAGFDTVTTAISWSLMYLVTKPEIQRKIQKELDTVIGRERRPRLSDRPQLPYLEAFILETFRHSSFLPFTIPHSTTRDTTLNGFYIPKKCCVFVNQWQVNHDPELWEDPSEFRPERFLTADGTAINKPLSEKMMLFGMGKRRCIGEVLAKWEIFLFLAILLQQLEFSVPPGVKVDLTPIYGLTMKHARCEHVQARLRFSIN

[12] = Metabolic stability in human liver microsomes assessed as compound remaining at […] incubated for 30 mins by LC/MS/MS analysis; type: ADME, Microsome; details: read-out: Stabilty
[13] = molecular target: CYP2C9 (Homo sapiens, UniProt P11712); assay: Inhibition of human recombinant CYP2C9 using sulfaphenazole […] at 10 uM by fluorometric assay; type: ADME
[14] = Mutagenicity in Salmonella typhimurium in presence of S9 fraction by Ames test; type: toxicity, subcellular; details: salmonella enterica subsp. enterica serovar typhimurium
[15] = Permeability of the compound at pH 7.4 by PAMPA; type: ADME

Chain of CYP2C9 (P11712 whole entry): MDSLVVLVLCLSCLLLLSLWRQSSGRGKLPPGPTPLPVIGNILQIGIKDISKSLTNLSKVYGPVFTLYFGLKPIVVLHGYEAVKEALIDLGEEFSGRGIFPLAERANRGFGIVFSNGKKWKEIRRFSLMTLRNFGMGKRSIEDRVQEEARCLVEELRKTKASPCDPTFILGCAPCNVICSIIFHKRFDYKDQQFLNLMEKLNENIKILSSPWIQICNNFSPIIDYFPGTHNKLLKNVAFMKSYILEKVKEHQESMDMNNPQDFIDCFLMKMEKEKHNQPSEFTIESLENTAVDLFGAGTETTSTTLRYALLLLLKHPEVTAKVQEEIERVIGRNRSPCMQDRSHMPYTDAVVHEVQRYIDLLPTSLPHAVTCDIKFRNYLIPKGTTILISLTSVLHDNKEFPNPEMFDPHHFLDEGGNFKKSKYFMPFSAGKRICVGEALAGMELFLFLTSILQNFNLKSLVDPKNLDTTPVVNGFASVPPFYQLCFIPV
Chain of CYP3A4 (P08684 whole entry): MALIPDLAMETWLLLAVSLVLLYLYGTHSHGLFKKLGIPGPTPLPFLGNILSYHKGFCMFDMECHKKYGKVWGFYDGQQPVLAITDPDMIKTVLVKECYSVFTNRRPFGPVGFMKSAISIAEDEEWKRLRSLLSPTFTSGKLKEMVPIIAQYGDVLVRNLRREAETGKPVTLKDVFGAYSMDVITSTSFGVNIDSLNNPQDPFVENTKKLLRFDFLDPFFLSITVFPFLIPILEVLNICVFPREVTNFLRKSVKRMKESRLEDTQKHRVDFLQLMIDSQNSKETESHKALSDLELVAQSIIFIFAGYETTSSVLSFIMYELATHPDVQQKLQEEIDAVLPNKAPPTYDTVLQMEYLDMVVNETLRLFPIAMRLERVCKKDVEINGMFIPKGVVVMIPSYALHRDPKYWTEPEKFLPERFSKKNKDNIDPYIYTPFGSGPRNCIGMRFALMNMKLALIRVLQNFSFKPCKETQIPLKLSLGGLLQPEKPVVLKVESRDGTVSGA
Chain of CYP2C19 (P33261 whole entry): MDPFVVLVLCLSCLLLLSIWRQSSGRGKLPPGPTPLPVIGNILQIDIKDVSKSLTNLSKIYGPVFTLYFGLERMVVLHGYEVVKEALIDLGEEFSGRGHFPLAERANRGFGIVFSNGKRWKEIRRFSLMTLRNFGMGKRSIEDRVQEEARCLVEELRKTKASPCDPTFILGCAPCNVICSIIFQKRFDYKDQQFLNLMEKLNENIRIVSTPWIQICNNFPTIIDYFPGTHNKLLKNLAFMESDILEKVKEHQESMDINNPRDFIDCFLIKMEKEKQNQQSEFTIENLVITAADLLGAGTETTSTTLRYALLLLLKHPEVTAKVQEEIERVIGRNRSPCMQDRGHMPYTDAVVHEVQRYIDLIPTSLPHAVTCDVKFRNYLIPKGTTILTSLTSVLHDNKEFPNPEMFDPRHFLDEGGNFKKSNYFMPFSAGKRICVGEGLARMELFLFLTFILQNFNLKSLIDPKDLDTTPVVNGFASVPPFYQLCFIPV
Chain of hERG (KCNH2) (Q12809 whole entry): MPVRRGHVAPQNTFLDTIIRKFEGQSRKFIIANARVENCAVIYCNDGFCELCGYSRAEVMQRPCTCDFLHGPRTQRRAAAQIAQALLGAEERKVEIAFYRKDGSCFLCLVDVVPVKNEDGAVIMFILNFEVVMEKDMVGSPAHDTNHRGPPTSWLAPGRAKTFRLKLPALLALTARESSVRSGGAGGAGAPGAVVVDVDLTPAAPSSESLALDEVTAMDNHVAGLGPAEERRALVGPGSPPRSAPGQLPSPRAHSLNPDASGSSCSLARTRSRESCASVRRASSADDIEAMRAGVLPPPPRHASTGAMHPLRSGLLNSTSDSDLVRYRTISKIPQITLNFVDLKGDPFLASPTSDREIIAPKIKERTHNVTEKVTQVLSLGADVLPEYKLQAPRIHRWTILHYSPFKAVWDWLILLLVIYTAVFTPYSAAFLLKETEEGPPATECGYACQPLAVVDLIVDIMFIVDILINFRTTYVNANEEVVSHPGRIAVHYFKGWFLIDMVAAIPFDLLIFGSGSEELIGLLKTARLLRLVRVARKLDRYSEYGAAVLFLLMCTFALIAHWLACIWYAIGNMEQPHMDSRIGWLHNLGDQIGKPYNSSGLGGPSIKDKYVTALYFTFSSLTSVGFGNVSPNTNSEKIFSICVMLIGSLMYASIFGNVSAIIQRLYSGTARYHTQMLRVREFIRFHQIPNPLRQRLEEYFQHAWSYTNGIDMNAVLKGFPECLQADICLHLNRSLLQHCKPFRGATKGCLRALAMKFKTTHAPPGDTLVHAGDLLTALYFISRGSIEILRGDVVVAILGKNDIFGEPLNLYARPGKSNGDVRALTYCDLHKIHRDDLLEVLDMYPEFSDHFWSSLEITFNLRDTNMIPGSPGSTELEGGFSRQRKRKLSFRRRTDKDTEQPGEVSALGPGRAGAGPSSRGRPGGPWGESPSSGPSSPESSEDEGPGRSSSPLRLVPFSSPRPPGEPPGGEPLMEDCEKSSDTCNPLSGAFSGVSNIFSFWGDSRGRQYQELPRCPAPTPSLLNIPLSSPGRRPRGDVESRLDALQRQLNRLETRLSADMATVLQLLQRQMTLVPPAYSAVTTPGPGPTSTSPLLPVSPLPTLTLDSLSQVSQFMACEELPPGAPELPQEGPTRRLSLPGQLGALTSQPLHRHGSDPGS
Chain of CYP2D6 (P10635 whole entry): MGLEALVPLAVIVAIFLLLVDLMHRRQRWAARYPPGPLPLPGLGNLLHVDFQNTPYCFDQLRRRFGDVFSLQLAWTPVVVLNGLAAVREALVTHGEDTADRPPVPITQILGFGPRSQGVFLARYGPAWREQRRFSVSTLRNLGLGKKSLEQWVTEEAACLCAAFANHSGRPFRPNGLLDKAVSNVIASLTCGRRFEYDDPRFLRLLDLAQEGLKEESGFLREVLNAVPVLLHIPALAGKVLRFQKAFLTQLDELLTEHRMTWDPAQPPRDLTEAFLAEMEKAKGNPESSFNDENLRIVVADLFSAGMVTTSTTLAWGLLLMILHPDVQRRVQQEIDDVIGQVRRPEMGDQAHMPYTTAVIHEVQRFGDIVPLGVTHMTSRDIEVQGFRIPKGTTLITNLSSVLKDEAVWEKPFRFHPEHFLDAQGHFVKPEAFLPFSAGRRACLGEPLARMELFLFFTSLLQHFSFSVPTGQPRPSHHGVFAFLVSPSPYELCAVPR

SMILES: COc1ncccc1C(=O)N1CCN(c2cc(Nc3ccc(N4CCOCC4)cc3)nc(SC)n2)CC1
- IC50 [1]: > 10000 nM
- inhibition [2]: 31%

SMILES: CS(=O)(=O)c1nc(Nc2cc(F)c(F)c(F)c2)cc(N2CCNCC2)n1
- IC50 [1]: 203 nM
- inhibition at 10 µM [3]: 93.4%
- inhibition at 40 µM [4]: 48.7%
- remaining at 0.5 h [5]: 99.8%
- inhibition at 10 µM [6]: 52.1%
- remaining at 0.5 h [7]: 87.9%
- inhibition [8]: 92%
- inhibition at 10 µM [9]: 5.76%
- inhibition [10]: 39%
- inhibition at 10 µM [11]: 23.6%
- remaining at 0.5 h [12]: 99.9%
- inhibition at 10 µM [13]: 85.2%
- Activity [14]: Non-Toxic

SMILES: CS(=O)(=O)c1nc(Nc2ccc(F)c(Cl)c2)cc(Nc2ccc(F)c(Cl)c2)n1
- IC50 [1]: 587 nM
- remaining at 0.5 h [5]: 92.9%
- remaining at 0.5 h [7]: 99.9%
- inhibition [2]: 57%
- remaining at 0.5 h [12]: 99.9%

SMILES: CS(=O)(=O)c1nc(Nc2ccc(F)c(Br)c2)cc(NC2CCNCC2)n1
- IC50 [1]: 536 nM
- inhibition [8]: 97%
- inhibition [10]: 7%

SMILES: CSc1nc(NCCNC(=O)c2cccnc2Cl)cc(Nc2ccc(N3CCOCC3)cc2)n1
- inhibition [2]: 2%

SMILES: CSc1nc(NCCNC(=O)c2ccc(Cl)nc2Cl)cc(Nc2ccc(N3CCOCC3)cc2)n1
- inhibition [2]: 5%

SMILES: COc1ncccc1C(=O)NCCNc1cc(Nc2ccc(F)cc2Cl)nc([S+](C)[O-])n1 (stereo not drawn)
- IC50 [1]: > 10000 nM
- inhibition [2]: 43%

SMILES: COc1ncccc1C(=O)NCCNc1cc(Nc2ccc(F)cc2)nc([S+](C)[O-])n1 (stereo not drawn)
- IC50 [1]: 210 nM
- inhibition [8]: 83%
- inhibition [10]: 32%

SMILES: COc1cncc(C(=O)NCCNc2cc(Nc3ccc(N4CCOCC4)cc3)nc([S+](C)[O-])n2)c1 (stereo not drawn)
- IC50 [1]: > 10000 nM
- inhibition [8]: 83%
- inhibition [10]: 43%
- inhibition [2]: 78%

SMILES: COc1ncccc1C(=O)NCCNc1cc(Nc2ccc(N3CCOCC3)cc2)nc(S(C)(=O)=O)n1
- IC50 [1]: 198 nM
- inhibition [8]: 86%
- inhibition [10]: 49%

SMILES: CSc1nc(NCCNC(=O)c2ncc(F)cc2F)cc(Nc2ccc(N3CCOCC3)cc2)n1
- inhibition [2]: 1%

SMILES: COc1ncccc1C(=O)N1CCN(c2cc(Nc3ccc(N4CCOCC4)cc3)nc([S+](C)[O-])n2)CC1 (stereo not drawn)
- IC50 [1]: > 10000 nM
- inhibition [2]: 33%

SMILES: O=C1CC2(CCCC2)CC(=O)N1CCCCN1CCN(c2ncccn2)CC1 [BUSPIRONE]
- remaining at 0.5 h [5]: 0.906%
- remaining at 0.5 h [7]: 0.528%
- remaining at 0.5 h [12]: 2.44%

SMILES: COc1ncccc1C(=O)NCCNc1cc(Nc2ccc(N3CCOCC3)cc2)nc([S+](C)[O-])n1 (stereo not drawn)
- IC50 [1]: 402 nM
- inhibition at 10 µM [3]: 40.7%
- remaining at 0.5 h [5]: 80.2%
- inhibition at 10 µM [6]: 51.7%
- remaining at 0.5 h [7]: 77.1%
- log(permeability) [15]: -5.47
- inhibition at 10 µM [11]: 18.3%
- inhibition [2]: 95%
- remaining at 0.5 h [12]: 93.4%
- inhibition at 10 µM [13]: 42.9%

SMILES: COc1cncc(C(=O)NCCNc2cc(Nc3ccc(N4CCOCC4)cc3)nc(SC)n2)c1
- IC50 [1]: 8420 nM
- inhibition [2]: 37%

SMILES: CCOC(=O)C1=C(CN2CCOCC2)NC(c2nccs2)=N[C@H]1c1ccc(F)cc1Br
- IC50 [1]: 188 nM
- inhibition [8]: 93%
- inhibition [10]: 49%

SMILES: CS(=O)(=O)c1nc(Nc2ccc(F)c(Br)c2)cc(N2CCNCC2)n1
- IC50 [1]: 547 nM
- inhibition [8]: 98%
- inhibition [10]: 13%

SMILES: C[S+]([O-])c1nc(NCCNC(=O)c2cccnc2)cc(Nc2ccc(N3CCOCC3)cc2)n1 (stereo not drawn)
- IC50 [1]: > 10000 nM
- inhibition [2]: 13%

SMILES: COc1ncccc1C(=O)NCCNc1cc(Nc2ccc(Cl)cc2)nc([S+](C)[O-])n1 (stereo not drawn)
- IC50 [1]: 299 nM
- inhibition [8]: 80%
- inhibition [10]: 27%

SMILES: COc1ncccc1C(=O)NCCNc1cc(Nc2ccc(Br)cc2)nc([S+](C)[O-])n1 (stereo not drawn)
- IC50 [1]: 177 nM
- inhibition [8]: 82%
- inhibition [10]: 27%

SMILES: COc1ncccc1C(=O)NCCNc1cc(Nc2ccccc2)nc([S+](C)[O-])n1 (stereo not drawn)
- IC50 [1]: 484 nM
- inhibition [8]: 83%
- inhibition [10]: 14%

SMILES: CS(=O)(=O)c1nc(Nc2ccc(F)c(Cl)c2)cc(N2CCNCC2)n1
- inhibition [8]: 90%
- inhibition [10]: 47%

SMILES: CSc1nc(NCCNC(=O)c2cccnc2)cc(Nc2ccc(N3CCOCC3)cc2)n1
- IC50 [1]: > 10000 nM
- inhibition [2]: 43%

SMILES: CS(=O)(=O)c1nc(Nc2ccc(F)c(Cl)c2)cc(NC2CCNCC2)n1
- IC50 [1]: 199 nM
- remaining at 0.5 h [5]: 93.9%
- remaining at 0.5 h [7]: 85.1%
- log(permeability) [15]: -5.46
- inhibition [8]: 95%
- inhibition [10]: 59%
- remaining at 0.5 h [12]: 92.9%

SMILES: CSc1nc(NCCNC(=O)c2cccc(Cl)n2)cc(Nc2ccc(N3CCOCC3)cc2)n1
- inhibition [2]: 0%

SMILES: CSc1nc(NCCNC(=O)c2cccnc2F)cc(Nc2ccc(N3CCOCC3)cc2)n1
- inhibition [2]: 0%

SMILES: CS(=O)(=O)c1nc(Nc2ccc(F)c(Br)c2)cc(NC2CCC(N)CC2)n1 (stereo not drawn)
- IC50 [1]: 480 nM
- inhibition [8]: 98%
- inhibition [10]: 10%

SMILES: COc1ncccc1C(=O)NCCNc1cc(Nc2ccc(N3CCOCC3)cc2)nc(SC)n1
- IC50 [1]: > 10000 nM
- remaining at 0.5 h [5]: 17.8%
- remaining at 0.5 h [7]: 49%
- inhibition [2]: 23%
- remaining at 0.5 h [12]: 58.8%

SMILES: CS(=O)(=O)c1nc(Nc2cc(F)c(F)c(F)c2)cc(Nc2cc(F)c(F)c(F)c2)n1
- IC50 [1]: 1020 nM
- remaining at 0.5 h [5]: 99.9%
- remaining at 0.5 h [7]: 99.9%
- inhibition [2]: 69%
- remaining at 0.5 h [12]: 99.9%

SMILES: COc1ncccc1C(=O)NCCNc1cc(Nc2ccc(F)c(F)c2)nc([S+](C)[O-])n1 (stereo not drawn)
- IC50 [1]: > 10000 nM
- inhibition [2]: 38%

SMILES: CS(=O)(=O)c1nc(Nc2cc(F)c(F)c(F)c2)cc(NC2CCNCC2)n1
- IC50 [1]: 190 nM
- remaining at 0.5 h [5]: 98.6%
- remaining at 0.5 h [7]: 98.2%
- log(permeability) [15]: <= -6
- inhibition [8]: 90%
- inhibition [10]: 16%

SMILES: COC(=O)C1=C(C)NC(c2ncc(F)cc2F)=N[C@H]1c1ccc(F)cc1Cl
- IC50 [1]: 205 nM
- inhibition [2]: 37%

SMILES: CS(=O)(=O)c1nc(Nc2cc(F)c(F)c(F)c2)cc(NC2CCC(N)CC2)n1 (stereo not drawn)
- IC50 [1]: 292 nM
- inhibition [8]: 96%
- inhibition [10]: 29%

SMILES: CS(=O)(=O)c1nc(Nc2ccc(F)cc2)cc(Nc2ccc(F)cc2)n1
- IC50 [1]: 6400 nM
- remaining at 0.5 h [5]: 37.7%
- remaining at 0.5 h [7]: 74.4%
- inhibition [2]: 49%
- remaining at 0.5 h [12]: 42.8%

SMILES: COc1ncccc1C(=O)NCCNc1cc(Nc2ccc(I)cc2)nc([S+](C)[O-])n1 (stereo not drawn)
- IC50 [1]: > 10000 nM
- inhibition [2]: 37%

From ChEMBL document CHEMBL4825668, “Discovery of Novel Pyrimidine-Based Capsid Assembly Modulators as Potent Anti-HBV Agents” (J Med Chem, 2021)
